Source: patent publication US20240315299A1, “AMIDE COMPOUNDS AND THEIR USE AS FLAVOR MODIFIERS” (FIRMENICH INCORPORATED, priority 2021, published 2024)

Biological target: T1, T1R umami taste receptor (Homo sapiens, UniProt Q7RTX0+Q7RTX1)
T1 sequence (Q7RTX1 21-841): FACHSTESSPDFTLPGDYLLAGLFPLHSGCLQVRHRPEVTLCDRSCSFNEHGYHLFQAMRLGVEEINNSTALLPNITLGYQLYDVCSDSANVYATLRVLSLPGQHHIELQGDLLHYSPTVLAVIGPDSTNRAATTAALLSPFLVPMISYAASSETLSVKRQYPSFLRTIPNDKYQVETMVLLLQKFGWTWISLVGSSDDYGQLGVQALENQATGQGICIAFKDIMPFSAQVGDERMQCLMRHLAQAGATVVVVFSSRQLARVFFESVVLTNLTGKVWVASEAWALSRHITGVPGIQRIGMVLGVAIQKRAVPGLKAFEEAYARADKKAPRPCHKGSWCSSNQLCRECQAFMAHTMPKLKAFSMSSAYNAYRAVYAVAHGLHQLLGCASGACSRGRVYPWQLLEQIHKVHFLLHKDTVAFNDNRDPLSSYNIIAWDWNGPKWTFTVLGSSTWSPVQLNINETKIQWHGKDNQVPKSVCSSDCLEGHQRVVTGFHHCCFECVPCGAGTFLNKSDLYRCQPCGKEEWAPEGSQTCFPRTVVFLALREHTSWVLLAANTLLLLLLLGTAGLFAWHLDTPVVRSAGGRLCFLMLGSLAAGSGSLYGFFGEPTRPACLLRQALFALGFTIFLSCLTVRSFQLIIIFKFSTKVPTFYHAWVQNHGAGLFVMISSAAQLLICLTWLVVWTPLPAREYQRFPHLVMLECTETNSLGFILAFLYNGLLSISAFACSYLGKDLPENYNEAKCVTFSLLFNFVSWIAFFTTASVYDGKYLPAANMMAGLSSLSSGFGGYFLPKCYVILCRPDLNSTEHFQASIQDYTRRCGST
T1 sequence (Q7RTX0 21-852): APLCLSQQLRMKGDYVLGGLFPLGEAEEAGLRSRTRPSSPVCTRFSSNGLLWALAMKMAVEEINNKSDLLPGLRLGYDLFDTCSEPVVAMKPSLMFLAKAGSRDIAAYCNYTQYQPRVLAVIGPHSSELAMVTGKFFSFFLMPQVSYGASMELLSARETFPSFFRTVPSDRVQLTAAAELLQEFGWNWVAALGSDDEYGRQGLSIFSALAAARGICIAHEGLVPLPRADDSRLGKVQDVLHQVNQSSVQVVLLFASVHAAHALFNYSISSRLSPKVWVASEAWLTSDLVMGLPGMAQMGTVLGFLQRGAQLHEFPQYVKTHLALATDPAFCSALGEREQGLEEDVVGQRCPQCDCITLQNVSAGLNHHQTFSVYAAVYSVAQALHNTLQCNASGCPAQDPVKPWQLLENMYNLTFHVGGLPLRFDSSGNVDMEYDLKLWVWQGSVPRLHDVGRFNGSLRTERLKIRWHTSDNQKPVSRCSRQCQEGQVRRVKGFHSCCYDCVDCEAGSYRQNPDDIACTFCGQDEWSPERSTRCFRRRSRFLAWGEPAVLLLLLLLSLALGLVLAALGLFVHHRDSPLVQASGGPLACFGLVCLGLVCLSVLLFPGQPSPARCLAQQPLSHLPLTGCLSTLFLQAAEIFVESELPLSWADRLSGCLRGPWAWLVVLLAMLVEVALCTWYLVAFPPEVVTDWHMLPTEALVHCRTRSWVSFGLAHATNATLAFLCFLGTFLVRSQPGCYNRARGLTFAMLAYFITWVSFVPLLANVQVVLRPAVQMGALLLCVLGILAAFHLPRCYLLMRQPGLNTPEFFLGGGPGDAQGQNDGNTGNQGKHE
Assay: in vitro cell-based assay, enhancement of MSG binding at umami taste receptor
Conditions: cells that express the T1R umami taste receptor, from dose-binding curves
Protocol: Each of Compounds 101-135, as well as Compounds 168 and 169, (as set forth in Table 1) was synthesized according to one of the general procedures set forth above in Examples 1 to 4. Thereafter, the compounds were tested in an in vitro cell-based assay having cells that express the T1R umami taste receptor. Dose-binding curves were recorded and the EC50 was determined for enhancement of MSG binding. Table 2 sets forth the calculated EC50 values for certain tested compounds.

Structure (SMILES) | EC50
COc1ccc(C(=O)OC/C=C(\C)C(=O)NCCCCNC(=O)/C=C/c2ccccc2)cc1 [Compound 169, (E)-4-((4-cinnamamidobutyl)amino)-3-methyl-4-oxobut-2-en-1-yl 4-methoxy benzoate] | 23 µM
C/C=C(\C)C(=O)NCCCCNC(=O)c1ccc(C)c(C)c1 [Compound 103] | < 1 µM
C/C=C(/C)C(=O)NCCCCNC(=O)/C=C/c1ccccc1 [Compound 114] | > 50 µM
C/C=C(\C)C(=O)NCCCCNC(=O)/C=C/c1ccc2c(c1)OCO2 [Compound 133, (E)-N-(4-((E)-3-(benzo[d][1,3]dioxol-5-yl)acrylamido)butyl)-2-methylbut-2-enamide] | 20 µM
CCC(C)C(=O)NCCCCNC(=O)/C=C/c1ccccc1 (stereo not shown) [Compound 109] | > 50 µM
C/C=C(\C)C(=O)NCCCCNC(=O)/C=C/c1ccc(OC)cc1 [Compound 129, (E)-N-(4-((E)-3-(4-methoxyphenyl)acrylamido)butyl)-2-methylbut-2-enamide] | < 1 µM
C/C=C(\C)C(=O)NCCCCNC(=O)/C=C/c1ccc(OCC)cc1 [Compound 130, (E)-N-(4-((E)-3-(4-ethoxyphenyl)acrylamido)butyl)-2-methylbut-2-enamide] | < 1 µM
CC(=O)OC/C=C(\C)C(=O)NCCCCNC(=O)/C=C/c1ccccc1 [Compound 168, (E)-4-((4-cinnamamidobutyl)amino)-3-methyl-4-oxobut-2-en-1-yl acetate] | < 1 µM
C/C=C(\C)C(=O)NCCCCNC(=O)c1ccc(C)cc1 [Compound 102] | 8 µM
C/C=C(\C)C(=O)NCCCCNC(=O)/C=C/c1ccccc1 [Compound 115, (E)-N-(4-cinnamamidobuty1)-2-methylbut-2-enamide] | < 8 µM
CC(=O)NCCCCNC(=O)/C=C/c1ccccc1 [Compound 107] | > 50 µM
O=C(/C=C/c1ccccc1)NCCCCNC(=O)c1ccc(O)cc1 [Compound 126, N-(4-cinnamamidobutyl)-4-hydroxybenzamide] | > 50 µM
C/C=C(\C)C(=O)NCCCCNC(=O)/C=C/c1ccccc1OC [Compound 127, (E)-N-(4-((E)-3-(2-methoxyphenyl)acrylamido)butyl)-2-methylbut-2-enamide] | 2 µM
CC(C)C(=O)NCCCCNC(=O)/C=C/c1ccccc1 [Compound 108] | > 50 µM
C/C=C(\C)C(=O)NCCCCNC(=O)c1ccc(OC)cc1 [Compound 105] | 12 µM
O=C(/C=C/c1ccccc1)NCCCCNC(=O)c1ccccc1 [Compound 123, N-(4-cinnamamidobutyl)benzamide] | > 50 µM
C/C=C(\C)C(=O)NCCCCNC(=O)/C=C/c1ccc(OC)cc1OC [Compound 131, (E)-N-(4-((E)-3-(2,4-dimethoxyphenyl)acrylamido)butyl)-2-methylbut-2-enamide] | < 1 µM

Other lines, results leading:

EC50 | Structure (SMILES)
6 µM | C/C=C(\C)C(=O)NCCCCNC(=O)c1ccc2c(c1)OCO2 [Compound 106]
4 µM | C/C=C(\C)C(=O)NCCCCNC(=O)/C=C/c1ccc(OC)c(OC)c1 [Compound 132, (E)-N-(4-((E)-3-(3,4-dimethoxyphenyl)acrylamido)butyl)-2-methylbut-2-enamide]
2 µM | C/C=C(\C)C(=O)NCCCCNC(=O)c1cc(C)c(C)c(C)c1 [Compound 104]
> 50 µM | CC(C)=C(C)C(=O)NCCCCNC(=O)/C=C/c1ccccc1 [Compound 117, N-(4-cinnamamidobutyl)-2,3-dimethylbut-2-enamide]
> 50 µM | C/C=C(\C)C(=O)NCCCCNC(=O)/C=C/c1ccc(O)c(OC)c1 [Compound 135, (E)-N-(4-((E)-3-(4-hydroxy-3-methoxyphenyl)acrylamido)butyl)-2-methylbut-2-enamide]
2 µM | C/C=C(\C)C(=O)NCCCCNC(=O)/C=C/c1cccc(OC)c1 [Compound 128, (E)-N-(4-((E)-3-(3-methoxyphenyl)acrylamido)butyl)-2-methylbut-2-enamide]
> 50 µM | CC/C=C(\C)C(=O)NCCCCNC(=O)/C=C/c1ccccc1 [Compound 118, (E)-N-(4-cinnamamidobuty1)-2-methylpent-2-enamide]
> 50 µM | O=C(/C=C/c1ccccc1)NCCCCNC(=O)/C=C/c1ccccc1 [Compound 122, (2E,2′E)-N,N′-(butane-1,4-diyl)bis(3-phenylacrylamide)]
< 12 µM | C/C(=C\CO)C(=O)NCCCCNC(=O)/C=C/c1ccccc1 [Compound 119, (E)-N-(4-cinnamamidobutyl)-4-hydroxy-2-methylbut-2-enamide]
> 50 µM | CC(C)=CC(=O)NCCCCNC(=O)/C=C/c1ccccc1 [Compound 116, N-(4-cinnamamidobutyl)-3-methylbut-2-enamide]
> 50 µM | C/C=C(\C)C(=O)NCCCCNC(=O)/C=C/c1ccc(OC)c(O)c1 [Compound 134, (E)-N-(4-((E)-3-(3-hydroxy-4-methoxyphenyl)acrylamido)butyl)-2-methylbut-2-enamide]
